Experimental data published in patent US12227495B2, “Herbicidal compounds” (SYNGENTA CROP PROTECTION AG, priority 2018, dated 2025).

Legend:
Format in all cases: in vivo
Settings in all cases: evaluated after 13 days
[1] = tested on: Ipomoea hederacea (IPOHE); assay: Post-emergence herbicide test, glasshouse, percentage damage
Method in brief: (§1)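 Compounds are applied as aqueous sprays at 500 g/ha, unless otherwise stated, either one day after sowing or to 8-day-old plants. Injury is assessed after 13 days and expressed on a 1-5 scale, where 5 means 81-100% damage.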

[2] = tested on: Solanum nigrum (SOLNI); assay: as above
Method in brief: as §1

[3] = tested on: Lolium perenne (LOLPE); assay: as above
Method in brief: as §1

[4] = tested on: Amaranthus retoflexus (AMARE); assay: as above
Method in brief: as §1

[5] = tested on: Setaria faberi (SETFA); assay: as above
Method in brief: as §1

[6] = tested on: Echinochloa crus-galli (ECHCG); assay: as above
Method in brief: as §1

[7] = tested on: Ipomoea hederacea (IPOHE); assay: Pre-emergence herbicide test, glasshouse, percentage damage
Method in brief: as §1

[8] = tested on: Solanum nigrum (SOLNI); assay: as above
Method in brief: as §1

[9] = tested on: Lolium perenne (LOLPE); assay: as above
Method in brief: as §1

[10] = tested on: Amaranthus retoflexus (AMARE); assay: as above
Method in brief: as §1

[11] = tested on: Setaria faberi (SETFA); assay: as above
Method in brief: as §1

[12] = tested on: Echinochloa crus-galli (ECHCG); assay: as above
Method in brief: as §1

Structure (SMILES) | percentage damage caused to the plant, IPOHE ([1]; 1000 g/ha) | percentage damage caused to the plant, SOLNI ([2]; 1000 g/ha) | percentage damage caused to the plant, LOLPE ([3]; 1000 g/ha) | percentage damage caused to the plant, AMARE ([4]; 1000 g/ha) | percentage damage caused to the plant, SETFA ([5]; 1000 g/ha) | percentage damage caused to the plant, ECHCG ([6]; 1000 g/ha) | Pre-emergence Test IPOHE percentage damage (five point scale) ([7]; rate 1000 g/ha) | Pre-emergence Test SOLNI percentage damage (five point scale) ([8]; rate 1000 g/ha) | Pre-emergence Test LOLPE percentage damage (five point scale) ([9]; rate 1000 g/ha) | Pre-emergence Test AMARE percentage damage (five point scale) ([10]; rate 1000 g/ha) | Pre-emergence Test SETFA percentage damage (five point scale) ([11]; rate 1000 g/ha) | Pre-emergence Test ECHCG percentage damage (five point scale) ([12]; rate 1000 g/ha) | also measured
FC(F)c1cc(-c2c(Cl)cccc2Oc2ccc(Cl)cn2)on1 [Compound A113] | 5 (5=81-100%) | 4 (4=61-80%) | 5 (5=81-100%) | 5 (5=81-100%) | 5 (5=81-100%) | 4 (4=61-80%) | 4 (4=61-80%) | 4 (4=61-80%) | 5 (5=81-100%) | 5 (5=81-100%) | 5 (5=81-100%) | 5 (5=81-100%) | 
Fc1cccc(Oc2cccc(OC(F)F)n2)c1-c1cc(C(F)F)no1 [Compound A48] | 2 (2=21-40%) | 5 (5=81-100%) | 1 (1=0-20%) | 5 (5=81-100%) | 2 (2=21-40%) | 1 (1=0-20%) | 1 (1=0-20%) | 1 (1=0-20%) | 1 (1=0-20%) | 1 (1=0-20%) | 1 (1=0-20%) | 1 (1=0-20%) | 
Fc1cc(C(F)(F)F)cnc1Oc1cccc(Br)c1-c1cc(C(F)F)no1 [Compound A104] | 4 (4=61-80%) | 5 (5=81-100%) | 3 (3=41-60%) | 4 (4=61-80%) | 4 (4=61-80%) | 4 (4=61-80%) | 4 (4=61-80%) | 2 (2=21-40%) | 4 (4=61-80%) | 4 (4=61-80%) | 5 (5=81-100%) | 4 (4=61-80%) | 
O=[N+]([O-])c1cccc(Oc2ncc(Cl)cc2F)c1-n1cc(C(F)(F)F)cn1 [Compound A46] | 2 (2=21-40%) | 5 (5=81-100%) | 3 (3=41-60%) | 5 (5=81-100%) | 4 (4=61-80%) | 3 (3=41-60%) | 1 (1=0-20%) | 1 (1=0-20%) | 1 (1=0-20%) | 4 (4=61-80%) | 5 (5=81-100%) | 4 (4=61-80%) | 
Fc1cc(Cl)cnc1Oc1ccccc1-n1cc(Br)cn1 [Compound A27] |  |  |  |  |  |  |  |  |  |  |  |  | percentage damage caused to the plant, IPOHE ([1]; 250 g/ha): 2 (2=21-40%); percentage damage caused to the plant, SOLNI ([2]; 250 g/ha): 5 (5=81-100%); percentage damage caused to the plant, LOLPE ([3]; 250 g/ha): 2 (2=21-40%); percentage damage caused to the plant, AMARE ([4]; 250 g/ha): 4 (4=61-80%); percentage damage caused to the plant, SETFA ([5]; 250 g/ha): 5 (5=81-100%); percentage damage caused to the plant, ECHCG ([6]; 250 g/ha): 5 (5=81-100%); Pre-emergence Test IPOHE percentage damage (five point scale) ([7]; rate 250 g/ha): 1 (1=0-20%); Pre-emergence Test SOLNI percentage damage (five point scale) ([8]; rate 250 g/ha): 5 (5=81-100%); Pre-emergence Test LOLPE percentage damage (five point scale) ([9]; rate 250 g/ha): 3 (3=41-60%); Pre-emergence Test AMARE percentage damage (five point scale) ([10]; rate 250 g/ha): 5 (5=81-100%); Pre-emergence Test SETFA percentage damage (five point scale) ([11]; rate 250 g/ha): 4 (4=61-80%); Pre-emergence Test ECHCG percentage damage (five point scale) ([12]; rate 250 g/ha): 5 (5=81-100%)
Fc1cccc(Oc2nc(Cl)ccc2C(F)(F)F)c1-c1cc(C(F)F)no1 [Compound A80] | 1 (1=0-20%) | 5 (5=81-100%) | 1 (1=0-20%) | 5 (5=81-100%) | 1 (1=0-20%) | 1 (1=0-20%) | 1 (1=0-20%) | 1 (1=0-20%) | 1 (1=0-20%) | 2 (2=21-40%) | 1 (1=0-20%) | 1 (1=0-20%) | 
N#Cc1cc(C(F)(F)F)cnc1Oc1cccc(Cl)c1-c1cc(C(F)F)no1 [Compound A118] | 5 (5=81-100%) | 5 (5=81-100%) | 5 (5=81-100%) | 5 (5=81-100%) | 5 (5=81-100%) | 5 (5=81-100%) | 4 (4=61-80%) | 4 (4=61-80%) | 5 (5=81-100%) | 5 (5=81-100%) | 5 (5=81-100%) | 5 (5=81-100%) | 
COc1cccc(Oc2ncc(Cl)cc2F)c1-n1cc(C(F)(F)F)cn1 [Compound A36, 5-chloro-3-fluoro-2-[3-methoxy-2-[4-(trifluoromethyl)pyrazol-1-yl]phenoxy]pyridine] | 2 (2=21-40%) | 5 (5=81-100%) | 4 (4=61-80%) | 5 (5=81-100%) | 5 (5=81-100%) | 4 (4=61-80%) | 5 (5=81-100%) | 5 (5=81-100%) | 3 (3=41-60%) | 5 (5=81-100%) | 5 (5=81-100%) | 5 (5=81-100%) | 
N#Cc1ccc(Oc2cccc(Br)c2-c2cc(C(F)F)no2)nc1 [Compound A102] | 5 (5=81-100%) | 5 (5=81-100%) | 4 (4=61-80%) | 5 (5=81-100%) | 5 (5=81-100%) | 4 (4=61-80%) | 4 (4=61-80%) | 4 (4=61-80%) | 5 (5=81-100%) | 5 (5=81-100%) | 5 (5=81-100%) | 5 (5=81-100%) | 
O=[N+]([O-])c1ccc(Oc2cccc(Cl)c2-c2cc(C(F)F)no2)nc1 [Compound A108] | 3 (3=41-60%) | 4 (4=61-80%) | 4 (4=61-80%) | 5 (5=81-100%) | 4 (4=61-80%) | 4 (4=61-80%) | 1 (1=0-20%) | 4 (4=61-80%) | 5 (5=81-100%) | 4 (4=61-80%) | 5 (5=81-100%) | 5 (5=81-100%) | 
Fc1cc(Cl)cnc1Oc1ccccc1-c1csc(Cl)c1 [Compound A69] | 2 (2=21-40%) | 4 (4=61-80%) | 1 (1=0-20%) | 3 (3=41-60%) | 3 (3=41-60%) | 4 (4=61-80%) | 1 (1=0-20%) | 1 (1=0-20%) | 1 (1=0-20%) | 3 (3=41-60%) | 1 (1=0-20%) | 1 (1=0-20%) | 
